Results reported in the METLIN SMRT retention time set (Domingo-Almenara et al. 2019).

Experiment: gradient 5% acetonitrile 3 min, to 50% in 2 min, to 85% in 15 min, held 3 min, 100 µL/min
Conditions: column: Zorbax Extend-C18 2.1 x 50 mm; eluents: water / acetonitrile, 0.1% formic acid
Procedure, shortened: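 Retention times come from adduct peaks that were picked computationally and then checked by hand. The standards, pure and pooled in mixtures of ~100 molecules, were run on a Zorbax Extend-C18 column (2.1 × 50 mm, 1.8 μm) at 100 μL/min with water and acetonitrile, each with 0.1% formic acid. Detection was by quadrupole time-of-flight mass spectrometry in positive and negative ionization mode, with a dead volume of 40 μL and a dwell volume of 900 μL.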

| RP-LC retention time | SMILES |
| --- | --- |
| 712 s | Cc1cc(C(F)(F)F)nn1CC(=O)N1CCc2nn(CC3CC3)c(=O)n2CC1 |
| 1150 s | CCn1cc(-c2ccc(F)cc2)cc1C(=O)N1CCC(C)CC1 |
| 838 s | Cc1cc(C)cc(NC(=O)N2CCC(n3cnc4ccc(C)cc4c3=O)CC2)c1 |
| 733 s | O=C(c1ccc2c(c1)OCO2)N1CCN(c2cc(-c3ccccc3)[nH]n2)CC1 |
| 872 s | Cc1ccc(S(=O)(=O)N2CCCC2C(=O)Nc2nnc(-c3ccc(C)c(C)c3)o2)cc1 (centres undefined) |
| 776 s | COc1ccc(NC(=O)CCc2c(C)nn(-c3cc(N(C)C)ncn3)c2C)c(OC)c1 |
| 972 s | CCCC(CCC)C(=O)N1CCCN(C2=NS(=O)(=O)C(c3ccc(F)cc3)=C2C)CC1 |
| 677 s | O=C(Nc1ccccc1F)NC1CCN(C(=O)N2C[C@H]3C[C@H](C2)[C@H]2CCCC(=O)N2C3)CC1 |
| 938 s | COCCn1cc2c3c(cccc31)CN(C(=O)Nc1cc(F)ccc1F)CC2 |
| 676 s | Cc1ccc2c(=O)c(C(=O)N3CCCC3)cn(CC(=O)NC3CCCCC3)c2n1 |
| 911 s | CCn1c(=O)sc2cc(S(=O)(=O)N3CCC(C(=O)Nc4ccc(F)cc4C)CC3)ccc21 |
| 586 s | COc1ccccc1N1CCN(CCNC(=O)NCc2cccs2)CC1 |
| 862 s | O=C1C(=O)N(C2CCN(S(=O)(=O)c3ccc(F)c(Cl)c3)CC2)CCN1Cc1ccccc1 |
| 576 s | COc1ccc2[nH]c3c(c2c1)CCNC31CCN(C(=O)C2CCN2C2CCCCC2)CC1 (centres undefined) |
| 704 s | CSc1ccccc1C(=O)NCC1CCN(C(=O)c2ccccc2F)CC1 |
| 793 s | Cc1ccc(C)c(NC(=O)C2CCCN(c3ncnc4c3nc3n4CCCCC3)C2)c1 (centres undefined) |
| 671 s | O=C(NC1CCCCC1)c1ccc(Cn2cncn2)cc1 |
| 640 s | Cc1ccc(-c2noc(CCN3CCN(C(C)C)CC3)n2)cc1 |
| 734 s | CC1CCC(C(=O)Nc2ccc(-c3nnc4n3CCCC4)cc2)CC1 (centres undefined) |
| 766 s | CCOc1ccccc1NC(=O)Cn1nc2n(c1=O)CCCCC2 |
| 983 s | CCCn1c(=O)sc2cc(S(=O)(=O)N3CCC(C(=O)Nc4cccc(F)c4)CC3)ccc21 |
| 752 s | O=C(c1cnccn1)N1CCC(N2C(=O)C(OCC3CC3)C23CCCCC3)CC1 (centres undefined) |
| 822 s | COC(=O)c1c(NCc2ccc(F)cc2F)c2cccc(Cl)c2[nH]c1=O |
| 848 s | O=C(Nc1ccc2c(c1)OCCO2)N1CCc2nc(-c3ccccc3)ncc2C1 |
| 739 s | CC(=O)Oc1cc2c(s1)CCN(C(C(=O)C1CC1)c1ccccc1F)C2 (centres undefined) |

| RP-LC retention time | SMILES |
| --- | --- |
| 846 s | O=C(NCC1CCCCC1)C1CCN(C(=O)c2ncn3c2COC(c2ccc(F)cc2)C3)CC1 (centres undefined) |
| 761 s | O=C(c1ccccc1Br)N1CCN(c2cc(-c3cccs3)[nH]n2)CC1 |
| 792 s | CC(=O)N(C1CCOCC1)C1CCN(S(=O)(=O)c2cc(F)ccc2C)CC1 |
| 653 s | COc1ccc(C(O)CN2CCN(c3cccc(C)c3)CC2)cc1OC (centres undefined) |
| 768 s | CCC(C(=O)NCC1CCCO1)n1c2ccccc2c2cnn(C)c(=O)c21 (centres undefined) |
| 616 s | COC(=O)C(Cc1ccccc1)NC(=O)N1CCCn2nc(-c3cccnc3)cc2C1 (centres undefined) |
| 646 s | COc1ccccc1N1CCN(C(=O)c2cn(-c3ccc(NC(C)=O)cn3)cn2)CC1 |
| 1280 s | COc1ccc(Cl)cc1NC(=O)C1(c2cccs2)CCCC1 |
| 828 s | CN1C(=O)c2cc(C(=O)NCc3ccccc3Br)nn2CC1(C)C(=O)NC1CCCC1 (centres undefined) |
| 683 s | Cc1cc(C(=O)N2C[C@@H](F)C[C@H]2C(=O)N2CCc3ccccc3C2)n(C)n1 |
| 690 s | O=C(O)c1cn(Cc2ccccn2)nc1S(=O)(=O)N1CCc2ccccc2C1 |
| 1070 s | Cc1nc(C2(C)CCN(S(=O)(=O)c3cc(C)c(C)cc3C)CC2)no1 |
| 659 s | CC(C)CN1C(=O)c2ccccc2C(C(=O)NCc2cccnc2)C12CCCCC2 (centres undefined) |
| 846 s | CCC(=O)N1CCc2cc(-c3ccc(C(=O)NC(C)C(=O)N4CCCCC4)cc3)ccc21 (centres undefined) |
| 862 s | COc1ccc(C(=O)N(CC(=O)N(Cc2ccco2)CC2CCCO2)C(C)(C)C)cc1 (centres undefined) |
| 825 s | Cc1ccc(CN2C(=O)NC3(CCN(C(=O)c4sccc4C)CC3)C2=O)cc1 |
| 785 s | Cc1noc(-c2ccnc(-n3ncc(C(=O)N4CCSCC4)c3C)c2)n1 |
| 884 s | CCn1ncc(NC(=O)c2ccc(Br)cc2)c(N2CCOCC2)c1=O |
| 1230 s | CCc1ccc(CNC(=O)C2CCCN(c3nc4c(s3)c(C)nn4-c3ccccc3)C2)cc1 (centres undefined) |
| 714 s | Cc1csc(NC(=O)C2CCCN(S(=O)(=O)c3c[nH]c(C(=O)N4CCCC4)c3)C2)n1 (centres undefined) |
| 614 s | COc1cccc(CN2CC(N(C3CCOCC3)S(C)(=O)=O)C2)c1 |
| 705 s | Cc1ccc(CNC(=O)CC2CCOC3(CCN(S(C)(=O)=O)CC3)C2)o1 (centres undefined) |
| 824 s | COc1ccc(N2CC(c3nc(-c4ccc5c(c4)OCO5)no3)CC2=O)cc1OC (centres undefined) |
| 735 s | O=C(NC1CC1)C1CCN(S(=O)(=O)Cc2ccc(Cl)cc2)CC1 |
| 673 s | CCN(Cc1ccccc1)C(=O)Cn1c(N2CCOCC2)nc(C)cc1=O |

The remaining lines, values behind:

| SMILES | RP-LC retention time |
| --- | --- |
| CCCn1c(=O)c2cc(C(=O)NCc3ccc(N4CCOCC4)cc3)nn2c2ccccc21 | 842 s |
| O=C(CN1CCN(Cc2ccccc2)C1=O)NCc1cccc(Cl)c1 | 822 s |
| CCN1C(=O)c2cccnc2Sc2cc(NC(=O)CCc3ccc(OC)cc3)ccc21 | 855 s |
| COc1ccc(-c2ccnc3nc(CCc4ccc(OC)c(OC)c4)nn23)cc1 | 859 s |
| CS(=O)(=O)c1ccc2nc(NC(=O)c3ccc([N+](=O)[O-])o3)sc2c1 | 679 s |
| CCN1C(=O)Cc2ccccc2C1C(=O)NCc1ccco1 (centres undefined) | 690 s |
| N#CC1=C(SCC(=O)Nc2nccs2)NC(=O)CC1c1ccccc1F (centres undefined) | 696 s |
| CC(C)[C@H](CO)Nc1nc(Sc2cccc(N)c2)c2ncn(C(C)C)c2n1 | 706 s |
| O=S(=O)(CCOc1ccccc1)N1CCN(c2ccccc2F)CC1 | 1010 s |
| Cc1ccn2c(NC(=O)COc3ccccc3)c(-c3ccccc3)nc2c1 | 683 s |
| Cc1ccc(-c2nc3cnccn3c2Nc2ccc(C)cc2Br)cc1 | 1140 s |
| O=C(N[C@H]1C[C@@H]2C[C@H]1CN2C(=O)c1cccc(OC(F)(F)F)c1)c1ccccc1 | 846 s |
| O=C(O)c1cc(-c2ccc(F)cc2)nc2ccccc12 | 884 s |
| Cc1cc(-c2nc(C3CC3)no2)c(C)n1CC(=O)Nc1ccc(Cl)cc1 | 1020 s |
| O=C(Cn1nnc2ccccc2c1=O)Nc1nc2ccccc2[nH]1 | 597 s |
| CCc1nnc(-c2cc(NS(=O)(=O)CC)c(C)s2)o1 | 810 s |
| CCc1ccc(Nc2ncccc2S(N)(=O)=O)cc1 | 891 s |
| Cc1cc2c(=O)n(CC(=O)Nc3ccc(Cl)cc3)c3cccnc3n2n1 | 745 s |
| COCCN(Cc1ccc(C(C)C)cc1)Cc1cc(=O)n2cc(C)ccc2n1 | 719 s |
| O=c1c2nc(-c3ccccc3)cn2ccn1-c1ccc(F)cc1 | 775 s |

| SMILES | RP-LC retention time |
| --- | --- |
| Cc1ccc(CN(Cc2ccc(-c3ccccc3S(=O)(=O)NC#N)cc2)C(=O)c2ccccc2Cl)cc1 | 1060 s |
| COc1ccc(-c2nc(-c3cccc(-c4ccnn4C)c3)no2)cc1F | 1130 s |
| CCOc1ccc(-n2nnnc2CNS(=O)(=O)c2cccc(C(F)(F)F)c2)cc1 | 892 s |
| CCOc1cccc(-c2noc(-c3nn(-c4cccc(OC)c4)ccc3=O)n2)c1 | 968 s |
| COc1ccc(-c2noc(Cn3nc(-c4ccc(C)cc4)ccc3=O)n2)cc1OC | 962 s |
| COc1ccccc1NC(=O)Nc1c(C)nc2ccc(C)cn2c1=O | 616 s |
| CCS(=O)(=O)N1CC(=O)N(c2cccc(C)c2C)C(C)(C(=O)NCc2ccccc2)C1 (centres undefined) | 807 s |
| COc1ccc(-c2nnc(-c3cccc(S(=O)(=O)N(C)C)c3)o2)cc1OC | 816 s |
| COc1ccc(NC2=NS(=O)(=O)C(c3ccc(OC)cc3)=C2C)cc1 | 910 s |
| O=C(Cn1ccc2sccc2c1=O)Nc1cc(F)cc(F)c1 | 784 s |
| COC(=O)c1c(NCCC(C)C)c2cccc(Cl)c2[nH]c1=O | 847 s |
| O=C(NCC(F)(F)F)c1ccc(N2CCCC2)nn1 | 570 s |
| O=C(CSc1ccc(F)cc1)NCC1(CO)CC1 | 629 s |
| O=C(CSc1ccc(-c2cccs2)nn1)N1CCN(c2ccccc2)CC1 | 848 s |
| Cc1ccc(N2C(=O)C3N=NN(c4ccccc4)C3C2=O)cc1C (centres undefined) | 1010 s |
| Cc1ccc(C(=O)Nc2nc(-c3ccc4c(c3)NC(=O)C(C)O4)c(C)s2)cc1 (centres undefined) | 1010 s |
| CCOC(=O)c1ccc(N2C=C(C(=O)OC)S(=O)(=O)c3ccccc32)cc1 | 893 s |
| CCCCn1c(=O)c2ccccc2n(Cc2nc(-c3cccc(Cl)c3)no2)c1=O | 1250 s |
| COc1ccc(C)cc1NC(=O)NCC(c1cccnc1)c1cn(C)c2ccccc12 (centres undefined) | 734 s |
